# Test results from ChEMBL document CHEMBL4402590, “Small-Molecule Antagonist Targeting Exportin-1 via Rational Structure-Based Discovery” (J Med Chem, 2020).
# pIC50: −log10 of the molar value. Active and inactive are the calls of the source. No cut-off for these calls is given here.
# Tests used:
# Mus musculus [1] = test: Anti-inflammatory activity against DSS-induced ulcerative colitis C57BL/6J mouse model assessed as reduction in body weight loss at 10 mg/kg, po administered for 7 days and measured daily; type: functional, organism-based
# Mus musculus [2] = test: Anti-inflammatory activity against DSS-induced ulcerative colitis C57BL/6J mouse model assessed as reduction in diarrhea at 10 mg/kg, po administered for 7 days and measured daily; type: functional, organism-based
# Mus musculus [3] = test: Anti-inflammatory activity against DSS-induced ulcerative colitis C57BL/6J mouse model assessed as restoration of colon length at 10 mg/kg, po administered for 7 days and measured on day 7; type: functional, organism-based
# Mus musculus [4] = test: Anti-inflammatory activity against DSS-induced ulcerative colitis C57BL/6J mouse model assessed as reduction in colon swelling at 10 mg/kg, po administered for 7 days and measured on day 7; type: functional, organism-based
# Mus musculus [5] = test: Anti-inflammatory activity against DSS-induced ulcerative colitis C57BL/6J mouse model assessed as reduction in colon inflammation at 10 mg/kg, po administered for 7 days and measured on day 7; type: functional, organism-based
# Mus musculus [6] = test: Anti-inflammatory activity against DSS-induced ulcerative colitis C57BL/6J mouse model assessed as reduction in colon ulceration at 10 mg/kg, po administered for 7 days and measured on day 7; type: functional, organism-based
# Mus musculus [7] = test: Anti-inflammatory activity against DSS-induced ulcerative colitis C57BL/6J mouse model assessed as reduction in TNFalpha production at 10 mg/kg, po administered for 7 days and measured on day 7 by ELISA; type: functional, organism-based
# Mus musculus [8] = test: Anti-inflammatory activity against DSS-induced ulcerative colitis C57BL/6J mouse model assessed as reduction in IL-1beta production at 10 mg/kg, po administered for 7 days and measured on day 7 by ELISA; type: functional, organism-based
# Mus musculus [9] = test: Anti-inflammatory activity against DSS-induced ulcerative colitis C57BL/6J mouse model assessed as reduction in IL-6 production at 10 mg/kg, po administered for 7 days and measured on day 7 by ELISA; type: functional, organism-based
# Mus musculus [10] = test: Anti-inflammatory activity against DSS-induced ulcerative colitis C57BL/6J mouse model assessed as reduction in IL-23 production at 10 mg/kg, po administered for 7 days and measured on day 7 by ELISA; type: functional, organism-based
# Mus musculus [11] = test: Anti-inflammatory activity against DSS-induced ulcerative colitis C57BL/6J mouse model assessed as restoration of damaged colon mucosal layer at 10 mg/kg, po administered for 7 days and measured on day 7 by ELISA; type: functional, organism-based
# Exportin-1 = Exportin-1 (Homo sapiens, UniProt O14980); test: Inhibition of nuclear CRM1 (unknown origin) by cell based assay
# Sequence of Exportin-1 (O14980 whole entry): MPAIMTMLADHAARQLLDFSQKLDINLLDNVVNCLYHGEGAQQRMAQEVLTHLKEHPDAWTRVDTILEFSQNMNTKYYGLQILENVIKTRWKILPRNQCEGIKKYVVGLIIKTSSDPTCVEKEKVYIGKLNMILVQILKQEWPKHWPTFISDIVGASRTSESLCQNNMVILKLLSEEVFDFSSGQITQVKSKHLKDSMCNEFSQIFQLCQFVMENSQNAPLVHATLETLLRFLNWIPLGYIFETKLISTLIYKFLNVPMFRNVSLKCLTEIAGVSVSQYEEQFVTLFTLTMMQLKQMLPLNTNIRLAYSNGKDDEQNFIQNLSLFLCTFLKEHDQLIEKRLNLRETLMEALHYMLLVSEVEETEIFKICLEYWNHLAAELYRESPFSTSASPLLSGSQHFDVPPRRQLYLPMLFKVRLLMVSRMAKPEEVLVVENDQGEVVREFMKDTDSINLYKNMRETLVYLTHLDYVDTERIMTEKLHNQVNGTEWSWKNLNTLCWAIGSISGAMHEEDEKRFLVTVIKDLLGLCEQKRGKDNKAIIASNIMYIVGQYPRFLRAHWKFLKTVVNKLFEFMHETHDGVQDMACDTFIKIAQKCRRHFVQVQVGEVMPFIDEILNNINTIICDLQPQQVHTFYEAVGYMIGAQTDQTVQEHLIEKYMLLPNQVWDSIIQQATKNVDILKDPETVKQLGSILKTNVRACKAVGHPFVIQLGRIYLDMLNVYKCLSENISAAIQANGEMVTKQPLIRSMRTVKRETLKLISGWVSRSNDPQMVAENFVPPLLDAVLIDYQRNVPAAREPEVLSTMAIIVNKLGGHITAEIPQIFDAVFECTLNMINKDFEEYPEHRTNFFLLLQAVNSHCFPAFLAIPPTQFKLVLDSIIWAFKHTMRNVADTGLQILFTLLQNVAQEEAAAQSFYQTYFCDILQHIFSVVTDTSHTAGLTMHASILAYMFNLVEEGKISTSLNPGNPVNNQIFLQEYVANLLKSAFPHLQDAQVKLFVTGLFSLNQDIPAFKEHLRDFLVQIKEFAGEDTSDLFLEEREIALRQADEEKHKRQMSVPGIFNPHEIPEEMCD
# Mus musculus [12] = test: Anti-inflammatory activity against DSS-induced ulcerative colitis C57BL/6J mouse model assessed as preservation of colon mucosal architecture at 3 and 30 mg/kg, po administered for 7 days and measured on day 7 by […] and eosin staining based microscopic analysis; type: functional, organism-based
# Mus musculus [13] = test: Anti-inflammatory activity against DSS-induced ulcerative colitis C57BL/6J mouse model assessed as reduction in colon swelling at 3 and 30 mg/kg, po administered for 7 days and measured on day 7 by […] and eosin staining based microscopic analysis; type: functional, organism-based
# Mus musculus [14] = test: Anti-inflammatory activity against DSS-induced ulcerative colitis C57BL/6J mouse model assessed as reduction in colon inflammation at 3 and 30 mg/kg, po administered for 7 days and measured on day 7 by […] and eosin staining based microscopic analysis; type: functional, organism-based
# Mus musculus [15] = test: Anti-inflammatory activity against DSS-induced ulcerative colitis C57BL/6J mouse model assessed as reduction in colon ulceration at 3 and 30 mg/kg, po administered for 7 days and measured on day 7 by […] and eosin staining based microscopic analysis; type: functional, organism-based
# Mus musculus [16] = test: Anti-inflammatory activity against DSS-induced ulcerative colitis C57BL/6J mouse model assessed as re-epithelialization of colon at 3 and 30 mg/kg, po administered for 7 days and measured on day 7 by […] and eosin staining based microscopic analysis; type: functional, organism-based
compound,measurement,setting,value
O=C(O)C[C@H]1CCc2c1[nH]c1ccc(OCc3ccc(C4CCCC4)c(C(F)(F)F)c3)cc21,Activity,Mus musculus [1],Active
same,Activity,Mus musculus [2],Active
same,Activity,Mus musculus [3],Active
same,Activity,Mus musculus [4],Active
same,Activity,Mus musculus [5],Active
same,Activity,Mus musculus [6],Active
same,Activity,Mus musculus [7],Active
same,Activity,Mus musculus [8],Active
same,Activity,Mus musculus [9],Active
same,Activity,Mus musculus [10],Active
same,Activity,Mus musculus [11],Active
[O-][S+](/C=C/CCN=C=S)c1ccccc1 (configuration not stated),pIC50,Exportin-1,5.82
Nc1ccc(O)c(C(=O)O)c1,Activity,Mus musculus [12],inactive
same,Activity,Mus musculus [13],inactive
same,Activity,Mus musculus [14],inactive
same,Activity,Mus musculus [15],inactive
same,Activity,Mus musculus [16],inactive
